Read-outs that look alike come from different tables or passages of the source.

Assay [1] concerns the target Brain AChE (acetylcholinesterase, rat striatum) (Rattus norvegicus, UniProt P37136). The assay is described as follows: biochemical. On the set-up: species or system rat (male Wistar).
Assay [2] relates to Scopolamine Induced Memory Deficit (mice). The note with it: mouse, in vivo, sc.

Chain of Brain AChE (acetylcholinesterase, rat striatum) (P37136 32-614): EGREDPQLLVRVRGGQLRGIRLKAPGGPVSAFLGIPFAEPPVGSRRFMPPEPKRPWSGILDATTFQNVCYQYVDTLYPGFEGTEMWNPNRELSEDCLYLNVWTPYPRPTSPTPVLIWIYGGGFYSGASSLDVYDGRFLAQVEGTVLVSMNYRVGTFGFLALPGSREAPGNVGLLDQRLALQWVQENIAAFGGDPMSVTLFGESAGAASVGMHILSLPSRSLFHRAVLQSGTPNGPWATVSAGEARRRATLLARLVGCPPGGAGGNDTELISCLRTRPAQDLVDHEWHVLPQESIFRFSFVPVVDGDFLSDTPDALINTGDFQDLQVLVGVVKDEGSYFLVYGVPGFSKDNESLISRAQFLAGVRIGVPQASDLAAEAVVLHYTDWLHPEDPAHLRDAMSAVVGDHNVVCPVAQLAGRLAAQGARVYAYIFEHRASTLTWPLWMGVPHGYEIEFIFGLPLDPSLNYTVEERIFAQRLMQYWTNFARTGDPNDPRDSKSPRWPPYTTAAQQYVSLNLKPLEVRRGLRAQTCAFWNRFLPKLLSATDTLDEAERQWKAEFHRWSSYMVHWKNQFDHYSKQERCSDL

As a reminder, the IC50 is the midpoint of a concentration-inhibition curve. Higher therefore signals weaker potency. For the molecule `CNC(=O)Oc1cnccc1N=CN(C)C` [4-[[(Dimethylamino)methylene]amino]-3-pyridinol methylcarbamate], in assay [1], the IC50 turned out to be 12.6 µM.
`CCNC(=O)Oc1cnccc1N=CN(C)C` [4-[[(Dimethylamino)methylene]amino]-3-pyridinol ethylcarbamate] registered a 50% inhibitory concentration (IC50) in assay [1] of 9.37 µM. Besides, the “% of Animals with Scopolamine Induced Memory Deficit Reversal” value was 20.0% in assay [2] (0.1 mg/kg) and 21.4% in assay [2] (0.3 mg/kg).
